# Experimental data reported in patent publication US20250339531A1, “DUX4 POLYPEPTIDES AND NUCLEIC ACIDS FOR TREATING INFLAMMATORY AND AUTOIMMUNE CONDITIONS” (Fred Hutchinson Cancer Center, priority 2021, published 2025).
# Entries after “also recorded” stand apart in the source; their conditions may differ. Where a SMILES comes first, the peptide text is derived from it. The star is where a group is joined. Cbz = O=C(OCc1ccccc1)*
# Tests used:
# [1] = test system: MHC-I, PSMB8, PSMB9, and PSMB10; test: Immunoblot of IFNG-induced MHC-I and immunoproteasome protein in MB135 myoblasts treated with inhibitors; format: cell-based, human; settings: MB135iDUX4 cells, data not shown
# [2] = test system: interferon-stimulated genes IFIH1, ISG20, CXCL9, and CD74; test: IFNG induction of interferon-stimulated genes, RT-qPCR in MB135 cells with doxycycline-inducible transgenes; format: cell-based, human; settings: MB135 cells, doxycycline-induced transgene, continuous protocol, IFNG 16 h
# Protocol: (§1) All myoblast experiments were conducted in immortalized MB135 or MB200 myoblast cell lines (isolated from a control or FSHD2 subject, respectively cultured in Ham's F-10 Nutrient Mix (Gibco) supplemented with 15% fetal bovine serum (Hyclone), 100 U/100 μg/ml penicillin/streptomycin (Gibco), 1 μM dexamethasone (Sigma), and 10 ng/ml recombinant human basic fibroblast growth factor (PeproTech). To differentiate the myoblasts to myotubes, media was changed to DMEM supplemented with 10 μg/ml insulin (Sigma) and 10 μg/ml transferrin (Sigma). Cell lines containing doxycycline-inducible transgenes were additionally cultured with 2 μg/mL puromycin (Sigma). Transgenes were induced with 1 μg/mL of doxycycline (Sigma) for 4 hours prior to other treatments for a total of 20 hrs. The Kitra-SRS cells (RRID:CVCL_YI69) were provided by Dr. H. Otani and Osaka University (Nakai et al., 2019) and were cultured in DMEM supplemented with 10% fetal bovine serum (Hyclone) and 100 U/100 μg/ml penicillin/streptomycin (Gibco). Biological replicates consisted of independent but parallel experiments, such as simultaneously stimulating three cell culture plates with IFNγ. Technical replicates consisted of repeat measurements of the same biological sample, such as loading the same biological sample in triplicate for analysis by RT-qPCR.
# (§2) Myoblasts were transfected with either (final concentrations) 10 μM 2′,3′-cGAMP (Sigma Aldrich), 2 μg/mL poly(I:C) (Invitrogen), or 1 μg/mL 3′ppp-dsRNA RIG-I ligand (Dan Stetson Lab, UW) using Lipofectamine 2000 according to manufacturer's protocol, or were stimulated with 1000U IFNβ (PeproTech) or 200 ng/ml IFNγ (R+D Systems) by addition directly to cell culture medium. After 16 hours of immune stimulation, RNA was collected from cells using the NucleoSpin RNA Kit (Macherey-Nagel) according to manufacturer's instructions. RNA samples were quantified by nanodrop and 1 μg of RNA per sample was treated with DNase I Amplification Grade (Thermo Fisher), and then synthesized into cDNA using the Superscript IV First-Strand Synthesis System, including oligo dT primers (Invitrogen). qPCR was run in 384-well plates on an Applied Biosystems QuantStudio 6 Flex Real-Time PCR System (ABI) and analyzed in Microsoft Excel.
# ISG induction by IFNG = test: RNA-seq of IFNG-induced genes in MB135 cells; format: cell-based, human; settings: genes induced by IFNG (log 2 fold-change >3), doxycycline + IFNG
# Protocol: RNA was extracted as described above from untreated, doxycycline-treated, IFNγ-treated, or doxycycline- and IFNγ-treated samples. RNA was submitted to the Fred Hutchinson Cancer Research Center Genomics Core for library preparation using the TruSeq3 Stranded mRNA kit (Illumina) followed by size and quality analysis by Tapestation (Agilent). Libraries were sequenced on a NextSeq P2-100 (Illumina).
# Sequencing analysis was performed using R version 4.0.3 (R Core Team, 2020). Sequencing reads were trimmed using Trimmomatic (version 0.39) (Bolger et al., 2014, Trimmomatic: a flexible trimmer for Illumina sequence data. Bioinformatics 30, 2114-2120), and aligned to the Homo sapiens GRCh38 reference genome with the Rsubread aligner (Liao et al., 2019, The R package Rsubread is easier, faster, cheaper and better for alignment and quantification of RNA sequencing reads. Nucleic Acids Res 47, e47). Gene counts were analyzed using featureCounts (v2.0.1) (Liao et al., 2019, supra) and the Gencode v35 annotation file. Normalization and differential expression analysis were done with DESeq2 (v1.26.0) (Love et al., 2014, Moderated estimation of fold change and dispersion for RNA-seq data with DESeq2. Genome Biol 15, 550).
# ZSCAN4 = test: Activation of DUX4 target gene ZSCAN4, RT-qPCR; format: cell-based, human; settings: MB135 cells ± doxycycline
# Protocol: as §1, §2
# H3.X/Y = test: Immunoblot of DUX4 target H3.X/Y proteins; format: cell-based, human; settings: MB135 cells, continuous or pulsed protocol
# Protocol: (§3) Protein samples were harvested in RIPA buffer [150 mM NaCl, 1% NP-40, 0.5% Na-deocycholate, 1% SDS, 25 mM Tris-HCl pH7.4] supplemented with protease and phosphatase inhibitor tablets (Pierce), followed by sonication in Diagenode Bioruptor. Lysate was cleared by centrifugation at 16000×g and quantified using a Pierce BCA assay (Thermo Fisher Scientific). Samples were run on NuPAGE precast polyacrylamide gels (Invitrogen) and transferred to PVDF membrane. Membranes were blocked in PBS containing 0.1% Tween-20 and 5% non-fat dry milk before overnight incubation at 4° C. with primary antibodies (see resource table for a list of antibodies used in this study). Membranes were incubated with horseradish peroxidase-conjugated secondary antibodies for 1 hour at room temperature and SuperSignal chemiluminescent substrate (Thermo Scientific) was used for detection on film with a Mini-medical 90 processor. Membranes were stripped with Restore Western Blot Stripping Buffer (Pierce).
# [3] = test system: MHC class I proteins (HLA-A/B/C); test: Immunoblot of IFNG-induced MHC class I protein, continuous or pulsed protocol, MB135 myoblasts; format: cell-based, human; settings: MB135 cells; for suppression of IFNG-induced MHC class I protein, pulsed protocol: 4 h doxycycline pulse, IFNG added later for 16 h; for suppression of IFNG-induced MHC class I protein, continuous protocol: doxycycline 20 h, IFNG last 16 h
# Protocol: (§4) In the “continuous” protocol (similar to the experiments shown in the prior FIGS. 1, 2, 4, 5, and 6), doxycycline is added to induce DUX4 expression at time 0 and four hours later IFNG is added for an additional 16 hours, resulting in 20 hours of continuous DUX4 induction with the last 16 hrs exposed to IFNG.
# (§5) In the “pulsed” protocol, doxycycline is added at time 0 to induce DUX4 expression, but after four hours the media is changed to remove the doxycycline, resulting in a pulse of DUX4 mRNA and protein sufficient to induce DUX4 target gene expression (see Resnick et al., Cell Rep. 2019 Nov. 12; 29(7):1812-1820.e5). IFNG is added at 28 hours for a period of 16 hours prior to harvesting the cells. […] This difference is not likely to be due to different amounts of the DUX4 and mutant DUX4 proteins because at the time of harvest both DUX4 and the F67A mutant DUX4 protein levels have declined to similarly low amounts relative to the continuous protocol, but could be due to the activation of DUX4 target genes by the full-length DUX4 since the H3.X/Y proteins show persistent expression in the pulsed protocol.
# as §3
# [4] = test system: immunoproteasome subunits PSMB8, PSMB9, and PSMB10; test: Immunoblot of IFNG-induced immunoproteasome subunits; format: cell-based, human; settings: MB135 cells; for suppression of IFNG-induced immunoproteasome subunit protein, pulsed protocol: 4 h doxycycline pulse, later IFNG 16 h; for suppression of IFNG-induced immunoproteasome subunit protein, continuous protocol: doxycycline 20 h, IFNG last 16 h
# Protocol: as §4, §5, §3
# [5] = test system: de novo protein synthesis; test: [35S]-methionine/cysteine metabolic labeling of nascent protein synthesis; format: cell-based; settings: human myoblasts, 20-92 h after 4 h doxycycline pulse
# Protocol: Cells were treated with and without a 4-hour pulse of doxycycline. Eight hours prior to harvest, cells were incubated in DMEM depleted for methionine and cysteine (Gibco) supplemented with 90 microcurie 35S-methionine/cysteine (Perkin Elmer) and 50 ng/ml […] (R&D Systems). Protein samples were harvested in RIPA buffer [150 mM NaCl, 1% NP-40, 0.5% Na-deocycholate, 1% SDS, 25 mM Tris-HCl pH7.4] supplemented with protease and phosphatase inhibitor tablets (Pierce), followed by sonication in Diagenode Bioruptor. Lysate was cleared by centrifugation at 16000×g and quantified using a Pierce BCA assay (Thermo Scientific). Samples were run on NuPAGE precast polyacrylamide gels (Invitrogen). Gels were stained with InstantBlue Coomassie (Abcam) following manufacturer protocol, placed on whatman paper, wrapped in plastic wrap, and dried. Gels were exposed to phosphor screen, imaged on Typhoon Trio imager, and analyzed with ImageQuant.
# HLA-E = test: Immunoblot of non-canonical MHC class I HLA-E; format: cell-based, human; settings: MB135iDUX4 cells
# Protocol: as §3
# [6] = test system: MHC-I, PSMB8, PSMB9, and PSMB10; test: Immunoblot of IFNG-induced MHC-I and immunoproteasome protein in MB135 myoblasts treated with inhibitors; format: cell-based, human; settings: MB135 myoblasts without DUX4 induction, agent then IFNG 16 h; 4EGI-1 at 50 uM
# Protocol: To test if mTOR inactivation was sufficient to block MHC-I and immunoproteasome protein levels in the absence of DUX4, parental MB135 myoblasts were treated with mTOR inhibitors everolimus or Torin2. Everolimus is a second-generation rapamycin analog with binding specificity for mTORC1. […] To further validate the role of 4EBP1 in blocking MHC-I and immunoproteasome protein expression, MB135 cells were treated with 4EGI-1, a small molecule that pharmacologically mimics 4EBP function and inhibits eIF4E.
# as §3
Molecule,rescue of post-transcriptional suppression after a pulse of DUX4 [1],"suppression of IFNG induction of ISGs (IFIH1, ISG20, CXCL9, CD74) [2]","suppression of IFNG induction of ISGs (IFIH1, ISG20, CXCL9, CD74) ([2]; listed as DUX4-F67A)",IFNG-induced genes whose induction was suppressed more than 2-fold (percent) (ISG induction by IFNG) [%],IFNG-induced genes whose induction was suppressed more than 4-fold (percent) (ISG induction by IFNG) [%],transcriptional activation of DUX4 target gene ZSCAN4 (ZSCAN4),transcriptional activation of DUX4 target gene ZSCAN4 (ZSCAN4; listed as DUX4-F67A),induction of DUX4 target H3.X/Y proteins (H3.X/Y),"suppression of IFNG-induced MHC class I protein, pulsed protocol ([3]; listed as DUX4(F67A))","suppression of IFNG-induced MHC class I protein, pulsed protocol ([3]; listed as DUX4-F67A)","suppression of IFNG-induced MHC class I protein, pulsed protocol ([3]; listed as F67A mutant)","suppression of IFNG-induced MHC class I protein, continuous protocol ([3]; listed as DUX4(F67A))","suppression of IFNG-induced MHC class I protein, continuous protocol ([3]; listed as DUX4-F67A)","suppression of IFNG-induced immunoproteasome subunit protein, pulsed protocol ([4]; listed as DUX4(F67A))","suppression of IFNG-induced immunoproteasome subunit protein, pulsed protocol ([4]; listed as DUX4 F67A)","suppression of IFNG-induced immunoproteasome subunit protein, continuous protocol ([4]; listed as DUX4(F67A))","suppression of IFNG-induced immunoproteasome subunit protein, continuous protocol ([4]; listed as DUX4 F67A)",nascent protein synthesis by 35S labeling [5],effect on IFNG-induced HLA-E protein (HLA-E),effect on IFNG-induced MHC-I and immunoproteasome protein in the absence of DUX4 [6]
CO/C1=C\C(C)=C\[C@@H](C)[C@@H](O)[C@@H](C)C/C(C)=C/C=C/[C@H](OC)[C@@H]([C@@H](C)[C@@H](O)[C@H](C)[C@@]2(O)C[C@@H](O)[C@H](C)[C@@H](C(C)C)O2)OC1=O [Bafilomycin],did not rescue post-transcriptional suppression,–,–,–,–,–,–,–,–,–,–,–,–,–,–,–,–,–,–,–
"iDUX4-F67A: DUX4 with phenylalanine to alanine mutation in first homeodomain preventing DNA binding, SEQ ID NOS: 6-7",–,sufficient to block IFNG-induced ISG expression; also recorded: still suppressed ISG induction by IFNG,fully suppresses the ISG response to IFNG,70,41,did not activate ZSCAN4,prevents the transcriptional activation of DUX4 regulated genes,does not induce expression of the DUX4-regulated H3.X/Y,protein levels were completely rescued,does not suppress MHC class I in the pulse protocol,does not suppress MHC class I in the pulsed protocol,suppressed IFNG-induced MHC-I and the immunoproteasome expression,suppress the IFNG induction of MHC class I expression; also recorded: inhibits MHC class I proteins in only the continuous protocol,protein levels were completely rescued; also recorded: neither suppression of PSMB9 or altered 4EBP1 phosphorylation was observed,does not inhibit at all in the pulsed protocol,suppressed IFNG-induced MHC-I and the immunoproteasome expression,only partially inhibits the IFNG induction of PSMB9 and PSMB10 in the continuous protocol,did not suppress protein translation; also recorded: no significant change,–,–
CC(C)C[C@@H](C=O)NC(=O)[C@H](CC(C)C)NC(=O)[C@H](CC(C)C)NC(=O)OCc1ccccc1 [MG132] (Cbz-Leu-Leu-Leu-aldehyde),did not rescue post-transcriptional suppression,–,–,–,–,–,–,–,–,–,–,–,–,–,–,–,–,–,stable expression of HLA-E protein,"MHC class I induction, but not HLA-E is blocked"
